Experimental data published in DBAASP.
Converted amounts (≈) assume the structure as drawn. One block for each compound: values may come before it.

Assays:
Assay in all cases: ≥ marks a high value that may be exact or a test limit, other limits are often not marked, values filed in µg/mL are converted to µM
[1] = tested on: Pseudomonas aeruginosa ATCC 27853
[2] = tested on: Escherichia coli ATCC 25922
[3] = tested on: Streptococcus agalactiae CICC 10465
[4] = tested on: Salmonella enterica subsp. enterica serovar Pullorum ATCC 7913
[5] = tested on: Lacticaseibacillus rhamnosus 7469
[6] = tested on: Salmonella enterica subsp. enterica serovar Typhimurium C77-31
Escherichia coli 078 = tested on: Escherichia coli 078
[7] = tested on: Salmonella enterica subsp. enterica serovar Typhimurium ATCC 14028
[8] = tested on: Staphylococcus epidermidis ATCC 12228
[9] = tested on: Streptococcus thermophilus YM-C
Escherichia coli UB1005 = tested on: Escherichia coli UB1005
[10] = tested on: Staphylococcus aureus ATCC 25923
Streptococcus agalactiae = tested on: Streptococcus agalactiae
[11] = tested on: Staphylococcus aureus ATCC 29213
[12] = tested on: Pseudomonas aeruginosa ATCC 47085
[13] = tested on: Escherichia coli D31 CGSC 5165
[14] = tested on: Staphylococcus aureus ATCC 35556
[15] = tested on: Acinetobacter baumannii ATCC 19606
Cutibacterium acnes = tested on: Cutibacterium acnes
[16] = tested on: Cutibacterium acnes ATCC 6919
[17] = tested on: Staphylococcus epidermidis 09B2490
[18] = tested on: Staphylococcus aureus ATCC 2592
[19] = tested on: Cutibacterium acnes ATCC 11827
[20] = tested on: Staphylococcus epidermidis 09A3726
[21] = tested on: Pseudomonas aeruginosa Z61
[22] = tested on: Salmonella enterica serovar typhimurium MS7953s
Aeromonas salmonicida = tested on: Aeromonas salmonicida
[23] = tested on: Salmonella enterica subsp. enterica serovar Typhimurium ATCC 14028s
Vibrio anguillarum = tested on: Vibrio anguillarum
[24] = tested on: Staphylococcus epidermidis C621
[25] = tested on: Pseudomonas aeruginosa K799
[26] = tested on: Mannheimia haemolytica 82-25

MIC [1]: > 64 µM
MIC [2]: > 64 µM
MIC [3]: 4 µM (≈ 8.55 µg/mL)
MIC [4]: ≥ 64 µM
MIC [5]: ≥ 64 µM
MIC [6]: ≥ 64 µM
MIC (Escherichia coli 078): ≥ 64 µM
MIC [7]: > 64 µM
MIC [8]: > 64 µM
MIC [9]: ≥ 64 µM
MIC (Escherichia coli UB1005): ≥ 64 µM
MIC [10]: > 64 µM
MIC (Streptococcus agalactiae): 4 µM (≈ 8.55 µg/mL)
MIC [11]: > 64 µM
SMILES: CC[C@H](C)[C@H](NC(=O)[C@H](CC(C)C)NC(=O)[C@@H](NC(=O)[C@@H](N)CC(=O)O)[C@@H](C)CC)C(=O)N[C@H](C(=O)N[C@H](C(=O)NCC(=O)NCC(=O)NCC(=O)N[C@@H](CO)C(=O)NCC(=O)N[C@@H](CCCCN)C(=O)N[C@@H](CCC(=O)O)C(=O)N[C@@H](CCCN=C(N)N)C(=O)N[C@@H](CCCCN)C(=O)N[C@@H](CCCCN)C(=O)N[C@@H](CCCN=C(N)N)C(=O)N[C@@H](CCCN=C(N)N)C(=O)N[C@@H](CCCN=C(N)N)C(N)=O)C(C)C)[C@@H](C)CC [DILIIVGGGSGKERKKRRR]

SMILES: CC[C@H](C)[C@H](NC(=O)[C@H](CCCCN)NC(=O)CNC(=O)[C@H](CC(C)C)NC(=O)[C@@H](NC(=O)[C@H](C)NC(=O)[C@H](CCCCN)NC(=O)CNC(=O)[C@H](C)NC(=O)CNC(=O)[C@H](CCCCN)NC(=O)[C@H](CCSC)NC(=O)[C@H](CCCCN)NC(=O)[C@@H](NC(=O)[C@H](Cc1c[nH]c2ccccc12)NC(=O)[C@H](CC(C)C)NC(=O)[C@H](CCCCN)NC(=O)[C@H](CCCCN)NC(=O)[C@H](CC(C)C)NC(=O)[C@@H](N)CC(C)C)[C@@H](C)O)C(C)C)C(=O)N[C@@H](CCCCN)C(=O)NCC(=O)N[C@@H](CC(C)C)C(=O)N[C@@H](CC(C)C)C(=O)O [LLKKLWTKMKGAGKAVLGKIKGLL]
MIC [12]: 3.75 µM (≈ 9.73 µg/mL)
MIC [13]: 1.88 µM (≈ 4.88 µg/mL)
MIC [14]: 3.75 µM (≈ 9.73 µg/mL)
MIC [15]: 0.94 µM (≈ 2.44 µg/mL)

MIC (Cutibacterium acnes): 0.269 µM (≈ 0.6 µg/mL)
MIC [16]: 0.269 µM (≈ 0.6 µg/mL)
MIC [17]: 1.03 µM (≈ 2.3 µg/mL)
MIC [18]: 1.03 µM (≈ 2.3 µg/mL)
MIC [19]: 0.269 µM (≈ 0.6 µg/mL)
MIC [20]: 2.11 µM (≈ 4.7 µg/mL)
SMILES: CC(C)[C@H](N)C(=O)N[C@@H](CCCCN)C(=O)N[C@@H](CCCN=C(N)N)C(=O)N[C@@H](Cc1c[nH]c2ccccc12)C(=O)N[C@@H](CCCCN)C(=O)N[C@@H](CCCCN)C(=O)N[C@@H](Cc1c[nH]c2ccccc12)C(=O)N[C@@H](Cc1c[nH]c2ccccc12)C(=O)N[C@@H](CCCN=C(N)N)C(=O)N[C@@H](CCCCN)C(=O)N[C@@H](Cc1c[nH]c2ccccc12)C(=O)N[C@@H](CCCCN)C(=O)N[C@@H](CCCCN)C(=O)N[C@@H](Cc1c[nH]c2ccccc12)C(=O)N[C@H](C(N)=O)C(C)C [VKRWKKWWRKWKKWV]

MIC [21]: 0.704 µM (≈ 2 µg/mL)
MIC [22]: 0.176 µM (≈ 0.5 µg/mL)
MIC (Aeromonas salmonicida): 0.352 µM (≈ 1 µg/mL)
MIC [23]: 0.704 µM (≈ 2 µg/mL)
MIC (Vibrio anguillarum): 0.704 µM (≈ 2 µg/mL)
MIC [24]: 0.704 µM (≈ 2 µg/mL)
MIC [25]: 0.704 µM (≈ 2 µg/mL)
SMILES: CC(C)C[C@H](NC(=O)[C@H](Cc1ccc(O)cc1)NC(=O)[C@H](Cc1cnc[nH]1)NC(=O)[C@@H](NC(=O)[C@H](CC(C)C)NC(=O)[C@H](C)NC(=O)[C@H](C)NC(=O)[C@H](CCCCN)NC(=O)CNC(=O)[C@@H](NC(=O)[C@H](Cc1cnc[nH]1)NC(=O)[C@H](CCCCN)NC(=O)CNC(=O)[C@@H](NC(=O)[C@H](Cc1cnc[nH]1)NC(=O)[C@H](C)NC(=O)[C@H](C)NC(=O)[C@H](CCCCN)NC(=O)[C@H](CCCCN)NC(=O)[C@H](Cc1ccccc1)NC(=O)[C@H](Cc1ccccc1)NC(=O)[C@H](CO)NC(=O)CNC(=O)[C@H](Cc1c[nH]c2ccccc12)NC(=O)CNC(=O)[C@@H](N)CCCCN)C(C)C)C(C)C)[C@@H](C)O)C(N)=O [KGWGSFFKKAAHVGKHVGKAALTHYL]

SMILES: C[C@H](NC(=O)CN)C(=O)N[C@@H](CC(=O)O)C(=O)N[C@@H](CC(=O)O)C(=O)N[C@@H](CC(=O)O)C(=O)N[C@@H](CC(=O)O)C(=O)N[C@@H](CC(=O)O)C(=O)O [GADDDDD]
MIC [26]: 30 µM (≈ 21.6 µg/mL)
